Positions of bridges follow the written chain, without caps; N, C: chain ends. Non-standard residues stand in square brackets, D forms with d. Residues, ends and D or L forms follow the SMILES beside them. Chains are numbered I, II in the order given. Ahx = NCCCCCC(=O)O
Columns and labels:
[1] = molecular target: T1, Hepatitis C virus NS4A protein (Hepatitis C virus, UniProt D2K2A8); experiment: Inhibitory concentration against hepatitis C NS4A protease; set-up: species or system Hepacivirus hominis
T1 sequence (D2K2A8 whole entry): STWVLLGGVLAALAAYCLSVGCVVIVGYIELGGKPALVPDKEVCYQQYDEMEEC

[2] = molecular target: T1, Hepatitis C virus NS4A protein; experiment: Inhibitory concentration against hepatitis C virus NS4A active site; set-up: species or system Hepacivirus hominis
NS3 [3] = molecular target: T2, NS3 (Hepatitis C virus, UniProt A3EZJ3); experiment: Inhibitory concentration against hepatitis C virus helicase; range 0.6-0.7; set-up: species or system Hepacivirus hominis
Genome polyprotein = Genome polyprotein (Hepatitis C virus genotype 1a (isolate 1) (HCV), UniProt P26664); experiment: Inhibitory concentration against hepatitis C virus NS2/3 protease; set-up: species or system Hepacivirus hominis
NS3 [4] = molecular target: T2, NS3; experiment: Inhibitory concentration against hepatitis C virus NS4A binding region of NS3 protease; set-up: species or system Hepacivirus hominis
NS3 (Hepatitis C virus) = NS3 (Hepatitis C virus) (UniProt A3EZJ3); experiment: Percent inhibition against hepatitis C virus helicase at 25 ug/mL; Range 6-13; settings: Hepacivirus hominis
Sequence of NS3 (Hepatitis C virus) (A3EZJ3 as listed by the source): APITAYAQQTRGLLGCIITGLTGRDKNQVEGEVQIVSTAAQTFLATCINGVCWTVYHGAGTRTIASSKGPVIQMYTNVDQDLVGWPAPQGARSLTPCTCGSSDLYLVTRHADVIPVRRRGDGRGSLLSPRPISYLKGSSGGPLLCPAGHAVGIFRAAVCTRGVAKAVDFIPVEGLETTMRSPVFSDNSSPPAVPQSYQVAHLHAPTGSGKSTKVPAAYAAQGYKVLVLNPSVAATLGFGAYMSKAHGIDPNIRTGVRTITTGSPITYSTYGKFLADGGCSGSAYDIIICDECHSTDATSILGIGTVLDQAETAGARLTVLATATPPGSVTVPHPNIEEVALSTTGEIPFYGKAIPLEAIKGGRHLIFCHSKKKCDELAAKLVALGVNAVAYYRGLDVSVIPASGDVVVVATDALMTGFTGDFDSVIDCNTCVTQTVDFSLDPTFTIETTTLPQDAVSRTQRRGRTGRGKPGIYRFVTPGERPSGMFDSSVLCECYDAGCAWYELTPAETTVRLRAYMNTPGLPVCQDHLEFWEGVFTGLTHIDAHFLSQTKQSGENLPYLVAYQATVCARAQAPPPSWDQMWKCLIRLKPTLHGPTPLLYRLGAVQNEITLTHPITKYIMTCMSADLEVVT

T2 sequence (A3EZJ3 whole entry): as the sequence (A3EZJ3 as listed by the source) above
Sequence of Genome polyprotein (P26664 810-1026 limits assumed): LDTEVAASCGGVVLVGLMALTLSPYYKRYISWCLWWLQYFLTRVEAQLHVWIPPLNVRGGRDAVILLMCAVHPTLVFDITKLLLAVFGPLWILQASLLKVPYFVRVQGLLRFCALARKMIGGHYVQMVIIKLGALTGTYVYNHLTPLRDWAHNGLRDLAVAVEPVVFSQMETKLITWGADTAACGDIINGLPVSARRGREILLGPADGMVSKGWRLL
Sequence of Genome polyprotein (P26664 1027-1657 limits assumed): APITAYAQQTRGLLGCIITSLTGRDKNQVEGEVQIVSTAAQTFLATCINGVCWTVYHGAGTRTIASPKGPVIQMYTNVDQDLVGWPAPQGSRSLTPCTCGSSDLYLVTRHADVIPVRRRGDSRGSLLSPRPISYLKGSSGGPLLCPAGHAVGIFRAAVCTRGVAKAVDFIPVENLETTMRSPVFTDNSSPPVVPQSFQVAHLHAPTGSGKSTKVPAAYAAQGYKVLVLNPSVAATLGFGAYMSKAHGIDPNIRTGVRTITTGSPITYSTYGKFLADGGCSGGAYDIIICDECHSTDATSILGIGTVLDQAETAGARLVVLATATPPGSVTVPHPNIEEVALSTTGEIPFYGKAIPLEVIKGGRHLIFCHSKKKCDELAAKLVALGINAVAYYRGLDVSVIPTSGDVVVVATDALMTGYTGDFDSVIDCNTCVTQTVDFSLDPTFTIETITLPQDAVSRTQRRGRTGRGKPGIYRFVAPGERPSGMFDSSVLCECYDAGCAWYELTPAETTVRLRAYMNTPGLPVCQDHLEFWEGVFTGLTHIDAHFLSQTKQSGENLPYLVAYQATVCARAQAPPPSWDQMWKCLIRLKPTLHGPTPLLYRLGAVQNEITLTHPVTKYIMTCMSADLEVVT

Question: H-CVVIVGRIVLSGK-OH was tested. Which IC50 [1] did it give?
Answer: 200 nM

Question: H-SLVIRGVIV-OH was tested. Which IC50 [2] did it give?
Answer: 600 nM

Question: How did the IC50 (NS3 [3]) turn out when `CN1CCN(CCCN2c3ccccc3Sc3ccc(C(F)(F)F)cc32)CC1` [TRIFLUOPERAZINE] was run?
Answer: 700 nM

Question: Which IC50 [2] does the source give for H-KGSLVIRGVIVVCK-OH here?
Answer: 200 nM

Question: Which IC50 (Genome polyprotein) does the source give for Ac-RGGSVVIVGRIILSGRK-OH here?
Answer: 3400 nM

Question: How did the IC50 (NS3 [4]) turn out when `CC[C@H](C)[C@@H](NC(=O)[C@H](NC(=O)[C@@H](CC(C)C)NC(=O)[C@@H](CO)NC(=O)CNC(=O)[C@H](CCCCN)NC(=O)CCCCCNC(=O)CCCCCNC(=O)[C@H](CS)NC(=O)[C@H](CS)NC(=O)[C@@H](NC(=O)[C@@H](NC(=O)[C@H](CC(=O)O)NC(=O)[C@@H](N)CCC(=O)O)C(C)C)C(C)C)C(C)C)C(=O)N[C@H](CCCN=C(N)N)C(=O)NCC(=O)N[C@@H](C(=O)N[C@@H](C(=O)N[C@@H](C(=O)N[C@@H](C(=O)N[C@H](CS)C(=O)O)C(C)C)C(C)C)[C@@H](C)CC)C(C)C` was run?
Answer: 200 nM

Question: For H-KGSVVIVGRIILSGRK-OH, which IC50 (Genome polyprotein) is on record?
Answer: 5700 nM

Question: Which inhibition (NS3 (Hepatitis C virus)) does the source give for `O=C(CCCCC(=O)Nc1nc2ccccc2[nH]1)Nc1nc2ccccc2[nH]1` here?
Answer: 13%

Question: How did the IC50 (NS3 [4]) turn out when `CC[C@H](C)[C@H](NC(=O)[C@H](CCCN=C(N)N)NC(=O)CNC(=O)[C@@H](NC(=O)[C@@H](NC(=O)[C@@H](NC(=O)[C@@H](NC(=O)[C@H](CS)NC(=O)CCCCCNC(=O)[C@H](CS)NC(=O)[C@H](CS)NC(=O)[C@@H](NC(=O)[C@@H](NC(=O)[C@H](CC(=O)O)NC(=O)[C@@H](N)CCC(=O)O)C(C)C)C(C)C)C(C)C)C(C)C)[C@@H](C)CC)C(C)C)C(=O)N[C@H](C(=O)N[C@@H](CC(C)C)C(=O)N[C@@H](CO)C(=O)NCC(=O)N[C@@H](CCCCN)C(=O)N[C@@H](CCCCN)C(=O)O)C(C)C` (H-EDVVCC[Ahx]CVVIVGRIVLSGKK-OH) was run?
Answer: 3000 nM

Question: With `CC[C@H](C)[C@H](NC(=O)[C@H](CCCN=C(N)N)NC(=O)CNC(=O)[C@@H](NC(=O)[C@@H](NC(=O)[C@@H](NC(=O)[C@@H](NC(=O)[C@@H](N)CS)C(C)C)C(C)C)[C@@H](C)CC)C(C)C)C(=O)N[C@H](C(=O)N[C@@H](CC(C)C)C(=O)N[C@@H](CO)C(=O)NCC(=O)N[C@@H](CCCCN)C(=O)NCCCC[C@H](NC(=O)CCCCCNC(=O)[C@H](CS)NC(=O)[C@H](CS)NC(=O)[C@@H](NC(=O)[C@@H](NC(=O)[C@H](CC(=O)O)NC(=O)[C@@H](N)CCC(=O)O)C(C)C)C(C)C)C(=O)O)C(C)C` (I: H-CVVIVGRIVLSGK / II: H-EDVVCC[Ahx]K-OH; amide I:C-II:8) as the compound, how does the IC50 (NS3 [4]) read?
Answer: 3000 nM

Reference: ChEMBL document CHEMBL1145280, “Control of hepatitis C: a medicinal chemistry perspective” (J Med Chem, 2005)
